The NIST ThermoML archive (doi:10.1021/je020131a)

Assay: xn = mol fraction of the nth substance listed
Conditions: 101.3 kPa, Liquid, Falling or rolling sphere viscometry

C1CCCCC1 [cyclohexane] + CCOC(=O)OCC
x2 = 0
Conditions | viscosity [mPa·s]
293.15 K | 0.976
298.15 K | 0.894
303.15 K | 0.813
313.15 K | 0.697

C1CCCCC1 [cyclohexane] + COC(=O)OC
x2 = 0
Conditions | viscosity [mPa·s]
293.15 K | 0.976
298.15 K | 0.894
303.15 K | 0.813
313.15 K | 0.697

CCOC(=O)OCC [diethyl carbonate] + C1CCCCC1
Conditions | viscosity [mPa·s]
293.15 K, x1 = 0.0501 | 0.906
293.15 K, x1 = 0.0992 | 0.85
293.15 K, x1 = 0.1969 | 0.78
293.15 K, x1 = 0.2923 | 0.741
293.15 K, x1 = 0.4023 | 0.72
293.15 K, x1 = 0.502 | 0.712
293.15 K, x1 = 0.5984 | 0.718
293.15 K, x1 = 0.6977 | 0.728
293.15 K, x1 = 0.808 | 0.742
293.15 K, x1 = 0.9037 | 0.761
293.15 K, x1 = 0.9511 | 0.776
293.15 K, x1 = 1 | 0.795
298.15 K, x1 = 0.0531 | 0.832
298.15 K, x1 = 0.094 | 0.792
298.15 K, x1 = 0.1931 | 0.725
298.15 K, x1 = 0.2865 | 0.691
298.15 K, x1 = 0.3821 | 0.676
298.15 K, x1 = 0.4802 | 0.674
298.15 K, x1 = 0.6454 | 0.685
298.15 K, x1 = 0.6801 | 0.689
298.15 K, x1 = 0.7828 | 0.701
298.15 K, x1 = 0.8852 | 0.719
298.15 K, x1 = 0.9177 | 0.726
298.15 K, x1 = 1 | 0.749
303.15 K, x1 = 0.0497 | 0.76
303.15 K, x1 = 0.1018 | 0.717
303.15 K, x1 = 0.1958 | 0.665
303.15 K, x1 = 0.293 | 0.637
303.15 K, x1 = 0.3922 | 0.628
303.15 K, x1 = 0.4767 | 0.626
303.15 K, x1 = 0.5943 | 0.635
303.15 K, x1 = 0.6778 | 0.643
303.15 K, x1 = 0.7897 | 0.657
303.15 K, x1 = 0.8649 | 0.671
303.15 K, x1 = 0.94 | 0.684
303.15 K, x1 = 1 | 0.699
313.15 K, x1 = 0.0511 | 0.659
313.15 K, x1 = 0.0983 | 0.632
313.15 K, x1 = 0.2003 | 0.594
313.15 K, x1 = 0.3002 | 0.572
313.15 K, x1 = 0.3963 | 0.56
313.15 K, x1 = 0.4953 | 0.563
313.15 K, x1 = 0.5914 | 0.568
313.15 K, x1 = 0.7001 | 0.576
313.15 K, x1 = 0.8098 | 0.589
313.15 K, x1 = 0.9014 | 0.603
313.15 K, x1 = 0.9494 | 0.613
313.15 K, x1 = 1 | 0.623

CCOC(=O)OCC [diethyl carbonate] + CCCCCC
Conditions | viscosity [mPa·s]
293.15 K, x1 = 0.0576 | 0.318
293.15 K, x1 = 0.1106 | 0.326
293.15 K, x1 = 0.2219 | 0.353
293.15 K, x1 = 0.3358 | 0.388
293.15 K, x1 = 0.4303 | 0.422
293.15 K, x1 = 0.5384 | 0.471
293.15 K, x1 = 0.6357 | 0.524
293.15 K, x1 = 0.7334 | 0.588
293.15 K, x1 = 0.8246 | 0.652
293.15 K, x1 = 0.9171 | 0.721
293.15 K, x1 = 0.9589 | 0.757
293.15 K, x1 = 1 | 0.795
298.15 K, x1 = 0.0586 | 0.318
298.15 K, x1 = 0.1024 | 0.323
298.15 K, x1 = 0.2106 | 0.347
298.15 K, x1 = 0.305 | 0.37
298.15 K, x1 = 0.3592 | 0.389
298.15 K, x1 = 0.4259 | 0.412
298.15 K, x1 = 0.5719 | 0.475
298.15 K, x1 = 0.7051 | 0.546
298.15 K, x1 = 0.7965 | 0.605
298.15 K, x1 = 0.8894 | 0.67
298.15 K, x1 = 0.9095 | 0.688
298.15 K, x1 = 0.9794 | 0.737
298.15 K, x1 = 1 | 0.749
303.15 K, x1 = 0.0583 | 0.292
303.15 K, x1 = 0.0941 | 0.299
303.15 K, x1 = 0.1925 | 0.324
303.15 K, x1 = 0.2897 | 0.347
303.15 K, x1 = 0.3927 | 0.378
303.15 K, x1 = 0.5087 | 0.42
303.15 K, x1 = 0.6072 | 0.463
303.15 K, x1 = 0.7059 | 0.512
303.15 K, x1 = 0.8002 | 0.568
303.15 K, x1 = 0.8947 | 0.628
303.15 K, x1 = 0.9532 | 0.672
303.15 K, x1 = 1 | 0.699
313.15 K, x1 = 0.0502 | 0.264
313.15 K, x1 = 0.1001 | 0.278
313.15 K, x1 = 0.2001 | 0.295
313.15 K, x1 = 0.3008 | 0.318
313.15 K, x1 = 0.4021 | 0.344
313.15 K, x1 = 0.4972 | 0.371
313.15 K, x1 = 0.5992 | 0.41
313.15 K, x1 = 0.7005 | 0.454
313.15 K, x1 = 0.8096 | 0.509
313.15 K, x1 = 0.898 | 0.558
313.15 K, x1 = 0.9671 | 0.599
313.15 K, x1 = 1 | 0.623
